Laboratory results taken from patent US20220233444A1, “THIOESTER CATIONIC LIPIDS” (Translate Bio, Inc., priority 2019, published 2022).

System: BALB/c mice
Test: In vivo expression of hEPO after IM injection of LNP formulations in BALB/c mice
Conditions: lipid nanoparticles with hEPO mRNA, Cationic Lipid, DMG-PEG2000, Cholesterol and DOPE; single intramuscular injection into gastrocnemius muscle, 0.1 ug; male BALB/c mice; 6 hours post-dose; ELISA; FIG. 1
Experimental: FIG. 1 depicts in vivo protein production resulting from the delivery of mRNA using lipid nanoparticles comprising Compound 30 as described herein.
Lipid nanoparticle formulations comprising human erythropoietin (hEPO) mRNA, Cationic Lipid, DMG-PEG2000, Cholesterol and DOPE were administered intramuscularly to study mRNA delivery and resultant hEPO expression. Male BALB/c mice at 6-8 weeks old are given a single injection of the LNP formulations into the gastrocnemius muscle at a dosage level of 0.1 ug. Blood samples were collected at 6 hours post-dose, hEPO protein expression levels were measured in the sera samples by ELISA and presented in FIG. 1.

Structure (SMILES): CCCCCCCCCCC(O)CN(CCCC(=O)SCCCCSC(=O)CCCN(CC(O)CCCCCCCCCC)CC(O)CCCCCCCCCC)CC(O)CCCCCCCCCC (stereo not shown) [Compound 30]
- hEPO protein expression levels in sera (in vivo protein production): high levels of in vivo protein production
